Measurements: patent US10150760B2, “Compounds for use in preparing heterocyclic triazole agonists of the APJ receptor” (AMGEN INC., priority 2016, dated 2018)

Molecular target: human APJ receptor (Homo sapiens (Human), UniProt P35414)
Assay: [35S]GTPγS binding assay on membranes from CHO cells stably expressing human APJ receptor
Assay type: biochemical
Conditions: read-out: Activity hAPJ SPA EC50 IP
Procedure, shortened: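 Agonist-driven [35S]GTPγS (0.2 nM) binding was measured over 90 min at room temperature on human APJ-expressing CHO membranes with bead capture, in buffer containing 3 μM GDP, 200 mM NaCl and 5 mM MgCl2 (pH 7.5). Excess unlabelled GTPγS (100 μM) gave nonspecific signal; EC50 from non-linear fits.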

Sequence of human APJ receptor (P35414 whole entry): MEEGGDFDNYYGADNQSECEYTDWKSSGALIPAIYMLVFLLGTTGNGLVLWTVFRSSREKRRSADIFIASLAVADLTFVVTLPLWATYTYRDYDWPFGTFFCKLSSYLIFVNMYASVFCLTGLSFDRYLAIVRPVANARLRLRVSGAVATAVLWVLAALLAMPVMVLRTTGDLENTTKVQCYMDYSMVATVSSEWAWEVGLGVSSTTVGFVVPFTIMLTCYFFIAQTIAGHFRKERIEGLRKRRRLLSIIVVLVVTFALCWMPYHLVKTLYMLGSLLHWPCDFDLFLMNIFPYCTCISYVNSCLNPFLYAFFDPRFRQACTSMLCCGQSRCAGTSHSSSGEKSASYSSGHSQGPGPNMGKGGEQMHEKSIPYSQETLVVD

In the case of `CO[C@H](c1ncc(Cl)cn1)[C@H](C)S(=O)(=O)Nc1nnc([C@H]2CCOC2)n1C1(C)CC1` (single isomer, unassigned) [Example 125.0, (1R,2S)-1-(5-chloropyrimidin-2-yl)-1-methoxy-N-(4-(1-methylcyclopropyl)-5-((R)-tetrahydrofuran-3-yl)-4H-1,2,4-triazol-3-yl)propane-2-sulfonamide or (1R,2S)-1-(5-chloropyrimidin-2-yl)-1-methoxy-N-(4-(1-methylcyclopropyl)-5-((S)-tetrahydrofuran-3-yl)-4H-1,2,4-triazol-3-yl)propane-2-sulfonamide], the EC50 is reported as 0.54 µM.

In the case of `CO[C@H](c1ncc(Cl)cn1)[C@H](C)S(=O)(=O)Nc1nnc([C@H]2CCCOC2)n1C1(C)CC1` (single isomer, unassigned) [Example 126.0, (1R,2S)-1-(5-chloropyrimidin-2-yl)-1-methoxy-N-(4-(1-methylcyclopropyl)-5-((R)-tetrahydro-2H-pyran-3-yl)-4H-1,2,4-triazol-3-yl)propane-2-sulfonamide or (1R,2S)-1-(5-chloropyrimidin-2-yl)-1-methoxy-N-(4-(1-methylcyclopropyl)-5-((S)-tetrahydro-2H-pyran-3-yl)-4H-1,2,4-triazol-3-yl)propane-2-sulfonamide], the EC50 is reported as 0.48 µM.

In the case of `CO[C@H](c1ncc(Cl)cn1)[C@H](C)S(=O)(=O)Nc1nnc([C@H]2CCCOC2)n1C1(C)CC1` (single isomer, unassigned) [Example 127.0, (1R,2S)-1-(5-chloropyrimidin-2-yl)-1-methoxy-N-(4-(1-methylcyclopropyl)-5-((R)-tetrahydro-2H-pyran-3-yl)-4H-1,2,4-triazol-3-yl)propane-2-sulfonamide or (1R,2S)-1-(5-chloropyrimidin-2-yl)-1-methoxy-N-(4-(1-methylcyclopropyl)-5-((S)-tetrahydro-2H-pyran-3-yl)-4H-1,2,4-triazol-3-yl)propane-2-sulfonamide], the EC50 is reported as 0.0077 µM.

`CO[C@H](c1cnc(C)cn1)[C@H](C)S(=O)(=O)Nc1nnc([C@H]2CCOC2)n1C1(C)CC1` (single isomer, unassigned) [Example 128.0, (1R,2S)-1-methoxy-N-(4-(1-methylcyclopropyl)-5-((R)-tetrahydrofuran-3-yl)-4H-1,2,4-triazol-3-yl)-1-(5-methylpyrazin-2-yl)propane-2-sulfonamide or (1R,2S)-1-methoxy-N-(4-(1-methylcyclopropyl)-5-((S)-tetrahydrofuran-3-yl)-4H-1,2,4-triazol-3-yl)-1-(5-methylpyrazin-2-yl)propane-2-sulfonamide] was tested, and the EC50 was 0.79 µM.

With `CO[C@H](c1cnc(C)cn1)[C@H](C)S(=O)(=O)Nc1nnc([C@H]2CCOC2)n1C1(C)CC1` (single isomer, unassigned) [Example 129.0, (1R,2S)-1-methoxy-N-(4-(1-methylcyclopropyl)-5-((R)-tetrahydrofuran-3-yl)-4H-1,2,4-triazol-3-yl)-1-(5-methylpyrazin-2-yl)propane-2-sulfonamide or (1R,2S)-1-methoxy-N-(4-(1-methylcyclopropyl)-5-((S)-tetrahydrofuran-3-yl)-4H-1,2,4-triazol-3-yl)-1-(5-methylpyrazin-2-yl)propane-2-sulfonamide] the EC50 was 2.1 µM.

Work on `CO[C@H](c1cnc(C)cn1)[C@H](C)S(=O)(=O)Nc1nnc([C@H]2CCCOC2)n1C1(C)CC1` (single isomer, unassigned) [Example 130.0, (1R,2S)-1-methoxy-N-(4-(1-methylcyclopropyl)-5-((R)-tetrahydro-2H-pyran-3-yl)-4H-1,2,4-triazol-3-yl)-1-(5-methylpyrazin-2-yl)propane-2-sulfonamide or (1R,2S)-1-methoxy-N-(4-(1-methylcyclopropyl)-5-((S)-tetrahydro-2H-pyran-3-yl)-4H-1,2,4-triazol-3-yl)-1-(5-methylpyrazin-2-yl)propane-2-sulfonamide] yielded an EC50 of 1.8 µM.

With `CO[C@H](c1cnc(C)cn1)[C@H](C)S(=O)(=O)Nc1nnc([C@H]2CCCOC2)n1C1(C)CC1` (single isomer, unassigned) [Example 131.0, (1R,2S)-1-methoxy-N-(4-(1-methylcyclopropyl)-5-((R)-tetrahydro-2H-pyran-3-yl)-4H-1,2,4-triazol-3-yl)-1-(5-methylpyrazin-2-yl)propane-2-sulfonamide or (1R,2S)-1-methoxy-N-(4-(1-methylcyclopropyl)-5-((S)-tetrahydro-2H-pyran-3-yl)-4H-1,2,4-triazol-3-yl)-1-(5-methylpyrazin-2-yl)propane-2-sulfonamide] the EC50 was 0.55 µM.

`COc1cccc(OC)c1-n1c(NS(=O)(=O)[C@@H](C)[C@H](C)c2cnc(C)cn2)nnc1[C@H]1CCOC1` (single isomer, unassigned) [Example 132.0, (2S,3R)-N-(4-(2,6-dimethoxyphenyl)-5-((R)-tetrahydrofuran-3-yl)-4H-1,2,4-triazol-3-yl)-3-(5-methylpyrazin-2-yl)butane-2-sulfonamide or (2S,3R)-N-(4-(2,6-dimethoxyphenyl)-5-((S)-tetrahydrofuran-3-yl)-4H-1,2,4-triazol-3-yl)-3-(5-methylpyrazin-2-yl)butane-2-sulfonamide] was tested, and the EC50 was 0.14 µM.

With `COc1cccc(OC)c1-n1c(NS(=O)(=O)[C@@H](C)[C@H](C)c2cnc(C)cn2)nnc1[C@H]1CCOC1` (single isomer, unassigned) [Example 133.0, (2S,3R)-N-(4-(2,6-dimethoxyphenyl)-5-((R)-tetrahydrofuran-3-yl)-4H-1,2,4-triazol-3-yl)-3-(5-methylpyrazin-2-yl)butane-2-sulfonamide or (2S,3R)-N-(4-(2,6-dimethoxyphenyl)-5-((S)-tetrahydrofuran-3-yl)-4H-1,2,4-triazol-3-yl)-3-(5-methylpyrazin-2-yl)butane-2-sulfonamide] the EC50 was 0.32 µM.

With `COc1cccc(OC)c1-n1c(NS(=O)(=O)[C@@H](C)[C@H](C)c2cnc(C)cn2)nnc1[C@H]1CCCOC1` (single isomer, unassigned) [Example 134.0, (2S,3R)-N-(4-(2,6-dimethoxyphenyl)-5-((R)-tetrahydro-2H-pyran-3-yl)-4H-1,2,4-triazol-3-yl)-3-(5-methylpyrazin-2-yl)butane-2-sulfonamide or (2S,3R)-N-(4-(2,6-dimethoxyphenyl)-5-((S)-tetrahydro-2H-pyran-3-yl)-4H-1,2,4-triazol-3-yl)-3-(5-methylpyrazin-2-yl)butane-2-sulfonamide] the EC50 was 0.4 µM.

With `COc1cccc(OC)c1-n1c(NS(=O)(=O)[C@@H](C)[C@H](C)c2cnc(C)cn2)nnc1[C@H]1CCCOC1` (single isomer, unassigned) [Example 135.0, (2S,3R)-N-(4-(2,6-dimethoxyphenyl)-5-((R)-tetrahydro-2H-pyran-3-yl)-4H-1,2,4-triazol-3-yl)-3-(5-methylpyrazin-2-yl)butane-2-sulfonamide or (2S,3R)-N-(4-(2,6-dimethoxyphenyl)-5-((S)-tetrahydro-2H-pyran-3-yl)-4H-1,2,4-triazol-3-yl)-3-(5-methylpyrazin-2-yl)butane-2-sulfonamide] the EC50 was 0.035 µM.

Work on `COc1cccc(OC)c1-n1c(NS(=O)(=O)[C@@H](C)[C@@H](OC(C)C)c2ncc(C)cn2)nnc1[C@H]1CCCOC1` (single isomer, unassigned) [Example 136.0, (1S,2S)-N-(4-(2,6-dimethoxyphenyl)-5-((R)-tetrahydro-2H-pyran-3-yl)-4H-1,2,4-triazol-3-yl)-1-isopropoxy-1-(5-methylpyrimidin-2-yl)propane-2-sulfonamide or (1S,2S)-N-(4-(2,6-dimethoxyphenyl)-5-((S)-tetrahydro-2H-pyran-3-yl)-4H-1,2,4-triazol-3-yl)-1-isopropoxy-1-(5-methylpyrimidin-2-yl)propane-2-sulfonamide] yielded an EC50 of 0.13 µM.

`COc1cccc(OC)c1-n1c(NS(=O)(=O)[C@@H](C)[C@@H](OC(C)C)c2ncc(C)cn2)nnc1[C@H]1CCCOC1` (single isomer, unassigned) [Example 137.0, (1S,2S)-N-(4-(2,6-dimethoxyphenyl)-5-((R)-tetrahydro-2H-pyran-3-yl)-4H-1,2,4-triazol-3-yl)-1-isopropoxy-1-(5-methylpyrimidin-2-yl)propane-2-sulfonamide or (1S,2S)-N-(4-(2,6-dimethoxyphenyl)-5-((S)-tetrahydro-2H-pyran-3-yl)-4H-1,2,4-triazol-3-yl)-1-isopropoxy-1-(5-methylpyrimidin-2-yl)propane-2-sulfonamide] was tested, and the EC50 was 0.0048 µM.

Compound `COc1ncnc(OC)c1-n1c(NS(=O)(=O)[C@@H](C)[C@H](OC)c2ncc(Cl)cn2)nnc1[C@H]1CCC(C)(C)O1` (single isomer, unassigned) [Example 138.0, (1R,2S)-1-(5-chloropyrimidin-2-yl)-N-(4-(4,6-dimethoxypyrimidin-5-yl)-5-((S)-5,5-dimethyltetrahydrofuran-2-yl)-4H-1,2,4-triazol-3-yl)-1-methoxypropane-2-sulfonamide or (1R,2S)-1-(5-chloropyrimidin-2-yl)-N-(4-(4,6-dimethoxypyrimidin-5-yl)-5-((R)-5,5-dimethyltetrahydrofuran-2-yl)-4H-1,2,4-triazol-3-yl)-1-methoxypropane-2-sulfonamide] has an EC50 of 0.12 µM.

Work on `COc1cccc(OC)c1-n1c(NS(=O)(=O)[C@@H](C)[C@H](O)c2ncc(C)cn2)nnc1[C@H]1CCOC1` (single isomer, unassigned) [Example 141.0, (1R,2S)-N-(4-(2,6-dimethoxyphenyl)-5-((S)-tetrahydrofuran-3-yl)-4H-1,2,4-triazol-3-yl)-1-hydroxy-1-(5-methylpyrimidin-2-yl)propane-2-sulfonamide or (1R,2S)-N-(4-(2,6-dimethoxyphenyl)-5-((R)-tetrahydrofuran-3-yl)-4H-1,2,4-triazol-3-yl)-1-hydroxy-1-(5-methylpyrimidin-2-yl)propane-2-sulfonamide] yielded an EC50 of 0.2 µM.
